Reference: patent US20240158446A1, “CYCLIC COMPOUND HAVING SELECTIVE INHIBITORY ACTION ON KRAS OVER HRAS AND NRAS” (CHUGAI SEIYAKU KABUSHIKI KAISHA, priority 2021, published 2024)
Read-outs that look alike come from different tables or passages of the source.

Legend:
[1] = target: GDP-bound KRAS wild-type protein (Homo sapiens, UniProt P01116); test: Binding to KRAS by surface plasmon resonance (SPR), Single Cycle Kinetics
[2] = target: GDP-bound NRAS wild-type protein (Homo sapiens, UniProt P01111); test: Binding to NRAS by surface plasmon resonance (SPR), Single Cycle Kinetics; settings: for NRAS/KRAS (ratio of KD value for NRAS to KD value for KRAS) / ratio of the KD value with respect to GDP-bound NRAS wild-type protein to the KD value with respect to KRAS: SPR; for NRAS/KRAS (ratio of KD value for NRAS to KD value for KRAS): GDP-bound NRAS wild-type protein vs GDP-bound KRAS wild-type protein
[3] = target: GDP-bound HRAS wild-type protein (Homo sapiens, UniProt P01112); test: Binding to HRAS by surface plasmon resonance (SPR), Single Cycle Kinetics; settings: for HRAS/KRAS (ratio of KD value for HRAS to KD value for KRAS) / ratio of the KD value with respect to GDP-bound HRAS wild-type protein to the KD value with respect to KRAS: SPR; for HRAS/KRAS (ratio of KD value for HRAS to KD value for KRAS): GDP-bound HRAS wild-type protein vs GDP-bound KRAS wild-type protein
[4] = system: human lung cancer strain NCI-H441;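 further: cell proliferation inhibition after four days measured by CellTiter-Glo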
[5] = SPR, Single Cycle Kinetics, GDP-bound KRAS wild-type protein, read-out: KRAS KD
[6] = SPR, Single Cycle Kinetics, 1:1 binding model, GDP-bound KRAS wild-type protein, read-out: KRAS KD
[7] = SPR, Single Cycle Kinetics, 1:1 binding model, read-out: KD value with respect to GDP-bound KRAS wild-type protein
[8] = read-out: NCI-H441 cell proliferation inhibitory activity, 50% proliferation inhibitory concentration (IC50 value), NCI-H441, four days, CellTiter-Glo

Chain of GDP-bound NRAS wild-type protein (P01111 whole entry): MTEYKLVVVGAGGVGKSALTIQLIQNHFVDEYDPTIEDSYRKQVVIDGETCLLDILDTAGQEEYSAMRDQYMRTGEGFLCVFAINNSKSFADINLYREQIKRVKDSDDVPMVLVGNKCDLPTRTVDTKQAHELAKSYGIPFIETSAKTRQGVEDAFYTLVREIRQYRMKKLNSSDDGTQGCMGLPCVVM
Chain of GDP-bound HRAS wild-type protein (P01112 whole entry): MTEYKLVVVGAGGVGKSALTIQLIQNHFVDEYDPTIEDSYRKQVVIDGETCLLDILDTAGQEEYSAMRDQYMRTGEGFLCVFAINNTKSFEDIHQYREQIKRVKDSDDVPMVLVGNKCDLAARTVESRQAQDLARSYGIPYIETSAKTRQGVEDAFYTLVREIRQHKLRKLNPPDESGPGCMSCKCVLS
Chain of GDP-bound KRAS wild-type protein (P01116 whole entry): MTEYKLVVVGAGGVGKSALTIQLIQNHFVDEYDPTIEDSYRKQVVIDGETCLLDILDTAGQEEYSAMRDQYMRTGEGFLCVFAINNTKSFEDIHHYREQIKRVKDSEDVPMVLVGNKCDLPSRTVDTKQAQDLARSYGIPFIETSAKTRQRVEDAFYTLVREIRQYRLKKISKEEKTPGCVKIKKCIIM

Structure (SMILES)	Kd [1, 5]	IC50 [4]	Kd [1, 6]	NRAS/KRAS (ratio of KD value for NRAS to KD value for KRAS) [2]	HRAS/KRAS (ratio of KD value for HRAS to KD value for KRAS) [3]	NRAS/KRAS (ratio of KD value for NRAS to KD value for KRAS) ([2]; KD ratio class)	HRAS/KRAS (ratio of KD value for HRAS to KD value for KRAS) ([3]; KD ratio class)	further results
CCC[C@H]1C(=O)N[C@@H]([C@@H](C)CC)C(=O)N(C)CC(=O)N(C)[C@H]2C/C=C\CCN(C2=O)[C@@H](Cc2ccc(C(F)(F)F)cc2)C(=O)N(C)CC(=O)N[C@@H](CCc2ccc3sccc3c2)C(=O)N2C[C@H](OCC)C[C@H]2C(=O)NC2(CCC2)C(=O)N(C)[C@@H](C(CC)CC)C(=O)N(C)[C@H](C(=O)N(C)C)CC(=O)N1C [PP1224]		122 nM	1.2 nM			A (a compound having 10 or more and less than 20 is denoted as A)	A (a compound having 10 or more and less than 20 is denoted as A)	
CCC[C@H]1C(=O)N[C@@H]([C@@H](C)CC)C(=O)N(C2CC2)CC(=O)N(C)[C@H]2C/C=C\CCN(C2=O)[C@@H](Cc2ccc(C(F)(F)F)cc2)C(=O)N(C)CC(=O)N[C@@H](CCc2ccc(C(F)(F)F)c(OC)c2)C(=O)N2C[C@H](OCC)C[C@H]2C(=O)N(C)C2(CCC2)C(=O)N(C)[C@@H](C2CCCC2)C(=O)N(C)[C@H](C(=O)N2CCCC2)CC(=O)N1C [PP3097]	0.38 nM			A (a compound having 10 or more and less than 20 is denoted as A)	A (a compound having 10 or more and less than 20 is denoted as A)			Kd [1, 7]: 0.38 nM; ratio of the KD value with respect to GDP-bound NRAS wild-type protein to the KD value with respect to KRAS [2]: A (a compound having 10 or more and less than 20 is denoted as A); ratio of the KD value with respect to GDP-bound HRAS wild-type protein to the KD value with respect to KRAS [3]: A (a compound having 10 or more and less than 20 is denoted as A); IC50 [4, 8]: 5.4 nM
CCO[C@@H]1C[C@H]2C(=O)NC3(CCC3)C(=O)N(C)[C@@H](C(CC)CC)C(=O)N(C)[C@H](C(=O)N(C)C)CC(=O)N(C)[C@@H](C)C(=O)N[C@@H]([C@@H](C)CC)C(=O)N(C)CC(=O)N(C)[C@H]3C/C=C\CCN(C3=O)[C@@H](Cc3ccc(C(F)(F)F)cc3)C(=O)N(C)CC(=O)N[C@@H](CCc3ccc4sccc4c3)C(=O)N2C1 [PP1222]		301 nM	1.2 nM			A (a compound having 10 or more and less than 20 is denoted as A)	A (a compound having 10 or more and less than 20 is denoted as A)	
CCC[C@H]1C(=O)N[C@@H]([C@@H](C)CC)C(=O)N2CCC[C@H]2C(=O)N(C)[C@H]2C/C=C\CCN(C2=O)[C@@H](Cc2ccc(C)cc2)C(=O)N(C)CC(=O)N[C@@H](CCc2cc(F)c(C(F)(F)F)c(F)c2)C(=O)N2C[C@H](OCC)C[C@H]2C(=O)N(C)C2(CCC2)C(=O)N(C)[C@@H](C2CCCC2)C(=O)N(C)[C@H](C(=O)N2CCCC2)CC(=O)N1C [PP3117, (1S,4S,10S,13S,17S,20S,26S,28R,32S,38S,42Z)-20-cyclopentyl-32-[2-[3,5-difluoro-4-(trifluoromethyl)phenyl]ethyl]-28-ethoxy-2,14,18,21,24,36-hexamethyl-10-[(1S)-1-methylpropyl]-13-propyl-38-(p-tolylmethyl)-17-(pyrrolidine-1-carbonyl)spiro[2,8,11,14,18,21,24,30,33,36,39-undecazatetracyclo[37.5.1.0^4,8.0^26,30]pentatetracont-42-ene-23,1′-cyclobutane]-3,9,12,15,19,22,25,31,34,37,45-undecone]	0.15 nM			A (a compound having 10 or more and less than 20 is denoted as A)	A (a compound having 10 or more and less than 20 is denoted as A)			Kd [1, 7]: 0.15 nM; ratio of the KD value with respect to GDP-bound NRAS wild-type protein to the KD value with respect to KRAS [2]: A (a compound having 10 or more and less than 20 is denoted as A); ratio of the KD value with respect to GDP-bound HRAS wild-type protein to the KD value with respect to KRAS [3]: A (a compound having 10 or more and less than 20 is denoted as A); IC50 [4, 8]: 2.6 nM
CCC[C@H]1C(=O)N[C@@H]([C@@H](C)CC)C(=O)N(C2CC2)CC(=O)N(C)[C@H]2C/C=C\CCN(C2=O)[C@@H](CC2CCC(F)(F)CC2)C(=O)N(C)CC(=O)N[C@@H](CCc2ccc(Cl)c(Cl)c2)C(=O)N2C[C@H](OC(C)C)C[C@H]2C(=O)NC2(CC(C)(C)C2)C(=O)N(C)[C@@H](C2CCCC2)C(=O)N(C)[C@H](C(=O)N(C)C)CC(=O)N1C [PP2521]	2.8 nM	129 nM		A (a compound having 10 or more and less than 20 is denoted as A)	A (a compound having 10 or more and less than 20 is denoted as A)			
CCC(CC)[C@H]1C(=O)N(C)[C@H](C(=O)N(C)C)CC(=O)N(C)[C@@H](COC)C(=O)N[C@@H]([C@@H](C)CC)C(=O)N2CCC[C@H]2C(=O)N(C)[C@H]2C/C=C\CCN(C2=O)[C@@H](Cc2ccc(C(F)F)cc2)C(=O)N(C)CC(=O)N[C@@H](CCc2ccc(Cl)c(Cl)c2)C(=O)N2C[C@H](OC3CCCC3)C[C@H]2C(=O)NC2(CC(C)(C)C2)C(=O)N1C [PP2652]		82.7 nM						Kd ([1]; SPR Single Cycle Kinetics, GDP-bound KRAS wild-type protein, 1:1 binding model, read-out: KRAS KD): 1.5 nM; NRAS/KRAS (ratio of KD value with respect to GDP-bound NRAS wild-type protein to KD value with respect to KRAS) ([2]; SPR KD ratio NRAS/KRAS, class symbols): AA (a compound having 20 or more is denoted as AA); HRAS/KRAS (ratio of KD value with respect to GDP-bound HRAS wild-type protein to KD value with respect to KRAS) ([3]; SPR KD ratio HRAS/KRAS, class symbols): A (a compound having 10 or more and less than 20 is denoted as A)

Continued by falling IC50 [4], values first:

Kd [1, 5]	IC50 [4]	Kd [1, 6]	Structure (SMILES)	NRAS/KRAS (ratio of KD value for NRAS to KD value for KRAS) [2]	HRAS/KRAS (ratio of KD value for HRAS to KD value for KRAS) [3]	NRAS/KRAS (ratio of KD value for NRAS to KD value for KRAS) ([2]; KD ratio class)	HRAS/KRAS (ratio of KD value for HRAS to KD value for KRAS) ([3]; KD ratio class)	further results
1.2 nM	80.2 nM		CCC(CC)[C@H]1C(=O)N(C)[C@H](C(=O)N(C)C)CC(=O)N(C)[C@@H](COC)C(=O)N[C@@H]([C@@H](C)CC)C(=O)N(C)CC(=O)N(C)[C@H]2C/C=C\CCN(C2=O)[C@@H](CC2CCC(F)(F)CC2)C(=O)N(C)CC(=O)N[C@@H](CCc2ccc(C(F)(F)F)c(Cl)c2)C(=O)N2C[C@@H](C)C[C@H]2C(=O)NC2(CC(C)(C)C2)C(=O)N1C [PP2454]	AA (a compound having 20 or more is denoted as AA)	A (a compound having 10 or more and less than 20 is denoted as A)			
0.97 nM	79.7 nM		CCC(CC)[C@H]1C(=O)N(C)[C@H](C(=O)N(C)C)CC(=O)N(C)[C@@H](COC)C(=O)N[C@@H]([C@@H](C)CC)C(=O)N(C)CC(=O)N(C)[C@H]2C/C=C\CCN(C2=O)[C@@H](CC2CCC(F)(F)CC2)C(=O)N(C)CC(=O)N[C@@H](CCc2ccc(C(F)(F)F)c(OC)c2)C(=O)N2C[C@@H](C)C[C@H]2C(=O)NC2(CC(C)(C)C2)C(=O)N1C [PP2442]	A (a compound having 10 or more and less than 20 is denoted as A)	A (a compound having 10 or more and less than 20 is denoted as A)			
	69 nM	0.36 nM	CCC[C@H]1C(=O)N[C@@H]([C@@H](C)CC)C(=O)N(C)CC(=O)N(C)[C@H]2C/C=C\CCN(C2=O)[C@@H](Cc2ccc(C(F)(F)F)cc2)C(=O)N(C)CC(=O)N[C@@H](CCc2ccc3sccc3c2)C(=O)N2C[C@H](OCC)C[C@H]2C(=O)NC2(CCC2)C(=O)N(C)[C@@H](C2CCCC2)C(=O)N(C)[C@H](C(=O)N(C)C)CC(=O)N1C [PP1256]			A (a compound having 10 or more and less than 20 is denoted as A)	A (a compound having 10 or more and less than 20 is denoted as A)	
	48.9 nM	0.55 nM	CC[C@H](C)[C@@H]1NC(=O)[C@H](CC)N(C)C(=O)C[C@@H](C(=O)N(C)C)N(C)C(=O)[C@H](C2CCCC2)N(C)C(=O)C2(CCC2)NC(=O)[C@@H]2CCCN2C(=O)[C@H](CCc2cc(F)c(C(F)(F)F)c(F)c2)NC(=O)CN(C)C(=O)[C@H](CC2CCCCC2)N2CC/C=C\C[C@@H](C2=O)N(C)C(=O)CN(C)C1=O [PP1475]			A (a compound having 10 or more and less than 20 is denoted as A)	A (a compound having 10 or more and less than 20 is denoted as A)	
	46.3 nM	0.81 nM	CC[C@H](C)[C@@H]1NC(=O)[C@H](CC2CC2)N(C)C(=O)C[C@@H](C(=O)N2CCOCC2)N(C)C(=O)[C@H](C2CCCC2)N(C)C(=O)C2(CCC2)NC(=O)[C@@H]2CCCN2C(=O)[C@H](CCc2ccc(C(F)(F)F)c(Cl)c2)NC(=O)CN(C)C(=O)[C@H](Cc2ccc(C(F)(F)F)cc2)N2C[C@H](C)CC[C@@H](C2=O)N(C)C(=O)[C@@H]2CCN2C1=O [PP1341]			A (a compound having 10 or more and less than 20 is denoted as A)	B (a compound having 3 or more and less than 10 is denoted as B)	
0.66 nM	6.5 nM		CCOC[C@H]1C(=O)N[C@@H]([C@@H](C)CC)C(=O)N(C2CC2)CC(=O)N(C)[C@H]2C/C=C\CCN(C2=O)[C@@H](CC2CCCCC2)C(=O)N(C)CC(=O)N[C@@H](CCc2ccc(C(F)(F)F)c(OC)c2)C(=O)N2C[C@@H](C)C[C@H]2C(=O)N(C)C2(CCC2)C(=O)N(C)[C@@H](C2CCCC2)C(=O)N(C)[C@H](C(=O)N(C)C)CC(=O)N1C [PP2373]	A (a compound having 10 or more and less than 20 is denoted as A)	A (a compound having 10 or more and less than 20 is denoted as A)			
